How the values were obtained:
Format in all cases: cell-based
[1] = test system: KRas-mediated Phosphorylation of ERK in H460 cells; assay: Cisbio HTRF pERK assay, H460 cells; conditions: H460 cells, single point at 100 nM; 0.1 µM
[2] = test system: KRas-mediated Phosphorylation of ERK in HCT116 cells; assay: Cisbio HTRF pERK assay, HCT116 cells; conditions: HCT116 cells, single point at 100 nM; 0.1 µM
[3] = test system: KRas-mediated Phosphorylation of ERK in H358 cells; assay: Cisbio HTRF pERK assay, H358 cells; conditions: single point at 100 nM; for Inhibition (HTRF % at 100 nM) of KRas-mediated Phosphorylation of ERK, H358: H358 cells, 0.1 µM; for inhibition at 0.1 µM: Homo sapiens, NCI-H358, H358 cells
[4] = test system: KRas-mediated Phosphorylation of ERK in A549 cells; assay: Cisbio HTRF pERK assay, A549 cells; conditions: single point at 100 nM; for Inhibition (HTRF % at 100 nM) of KRas-mediated Phosphorylation of ERK, A549: A549 cells, 0.1 µM; for inhibition at 0.1 µM: Homo sapiens, A549, A549 cells

Structure (SMILES) | Inhibition (HTRF % at 100 nM) of KRas-mediated Phosphorylation of ERK, H460 [1] | Inhibition (HTRF % at 100 nM) of KRas-mediated Phosphorylation of ERK, HCT116 [2] | inhibition at 0.1 µM [3] | inhibition at 0.1 µM [4] | other results
CCc1c(F)ccc2cc(O)cc(-c3c(F)cc4c(N5CCCn6nc(C(=O)N(C)C)cc6C5)nc(OC[C@@]56CCCN5C[C@H](F)C6)nc4c3F)c12 (atropisomer, axis not shown; (aS)) [Example 63, 5-((R)-7-(8-ethyl-7-fluoro-3-hydroxynaphthalen-1-yl)-6,8-difluoro-2-(((2R,7aS)-2-fluorohexahydro-1H-pyrrolizin-7a-yl)methoxy)quinazolin-4-yl)-N,N-dimethyl-5,6,7,8-tetrahydro-4H-pyrazolo[1,5-a][1,4]diazepine-2-carboxamide] | 82% | 61% |  |  | 
CCc1c(F)ccc2cc(O)cc(-c3c(F)cc4c(N5CCCn6nc(C(=O)N(C)C)cc6C5)nc(OC[C@@]56CCCN5C[C@H](F)C6)nc4c3F)c12 (atropisomer, axis not shown; (aS)) [Example 64, 5-((S)-7-(8-ethyl-7-fluoro-3-hydroxynaphthalen-1-yl)-6,8-difluoro-2-(((2R,7aS)-2-fluorohexahydro-1H-pyrrolizin-7a-yl)methoxy)quinazolin-4-yl)-N,N-dimethyl-5,6,7,8-tetrahydro-4H-pyrazolo[1,5-a][1,4]diazepine-2-carboxamide] | 3% | 14% |  |  | 
CCc1c(F)ccc2cc(O)cc(-c3c(F)cc4c(N5CCOC[C@@](C)(O)C5)nc(OC[C@@]56CCCN5C[C@H](F)C6)nc4c3F)c12 (atropisomer, axis not shown; (aS)) [Example 65, (S)-4-((S)-7-(8-ethyl-7-fluoro-3-hydroxynaphthalen-1-yl)-6,8-difluoro-2-(((2R,7aS)-2-fluorohexahydro-1H-pyrrolizin-7a-yl)methoxy)quinazolin-4-yl)-6-methyl-1,4-oxazepan-6-ol] | 1% | 16% |  |  | 
CCc1c(F)ccc2cc(O)cc(-c3c(F)cc4c(N5CCOC[C@@](C)(O)C5)nc(OC[C@@]56CCCN5C[C@H](F)C6)nc4c3F)c12 (atropisomer, axis not shown; (aS)) [Example 66, (S)-4-((R)-7-(8-ethyl-7-fluoro-3-hydroxynaphthalen-1-yl)-6,8-difluoro-2-(((2R,7aS)-2-fluorohexahydro-1H-pyrrolizin-7a-yl)methoxy)quinazolin-4-yl)-6-methyl-1,4-oxazepan-6-ol] | 97% | 97% |  |  | 
CCc1c(F)ccc2cc(O)cc(-c3c(F)cc4c(N5C[C@@H]6C[C@H](C5)[C@H](O)C6)nc(OC[C@@]56CCCN5C[C@H](F)C6)nc4c3F)c12 (atropisomer, axis not shown; (aS)) [Example 68, (1R,5R,6R)-3-((S)-7-(8-ethyl-7-fluoro-3-hydroxynaphthalen-1-yl)-6,8-difluoro-2-(((2R,7aS)-2-fluorohexahydro-1H-pyrrolizin-7a-yl)methoxy)quinazolin-4-yl)-3-azabicyclo[3.2.1]octan-6-ol] | 14% | 8% |  |  | 
CCc1c(F)ccc2cc(O)cc(-c3c(F)cc4c(N5CCC[C@@](C)(O)C5)nc(OC[C@@]56CCCN5C[C@H](F)C6)nc4c3F)c12 (atropisomer, axis not shown; (aS)) [Example 69, (R)-1-((R)-7-(8-ethyl-7-fluoro-3-hydroxynaphthalen-1-yl)-6,8-difluoro-2-(((2R,7aS)-2-fluorotetrahydro-1H-pyrrolizin-7a(5H)-yl)methoxy)quinazolin-4-yl)-3-methylpiperidin-3-ol] |  |  |  |  | Inhibition (HTRF % at 100 nM) of KRas-mediated Phosphorylation of ERK, H358 [3]: 101%; Inhibition (HTRF % at 100 nM) of KRas-mediated Phosphorylation of ERK, A549 [4]: 84%
CCc1c(F)ccc2cc(O)cc(-c3c(F)cc4c(N5CCC[C@@](C)(O)C5)nc(OC[C@@]56CCCN5C[C@H](F)C6)nc4c3F)c12 (atropisomer, axis not shown; (aS)) [Example 70, (R)-1-((S)-7-(8-ethyl-7-fluoro-3-hydroxynaphthalen-1-yl)-6,8-difluoro-2-(((2R,7aS)-2-fluorotetrahydro-1H-pyrrolizin-7a(5H)-yl)methoxy)quinazolin-4-yl)-3-methylpiperidin-3-ol] |  |  |  |  | Inhibition (HTRF % at 100 nM) of KRas-mediated Phosphorylation of ERK, H358 [3]: 24%; Inhibition (HTRF % at 100 nM) of KRas-mediated Phosphorylation of ERK, A549 [4]: 6%
CCc1c(F)ccc2cc(O)cc(-c3ccc4c(N5CCCC6(CC(=O)N6)C5)nc(OCC5(CN(C)C)CC5)nc4c3F)c12 (stereo not shown) [Example 38, 6-(2-((1-((dimethylamino)methyl)cyclopropyl)methoxy)-7-(8-ethyl-7-fluoro-3-hydroxynaphthalen-1-yl)-8-fluoroquinazolin-4-yl)-1,6-diazaspiro[3.5]nonan-2-one] |  |  | 16% | 9% | 
CCc1c(F)ccc2cc(O)cc(-c3ccc4c(N5CCCn6nncc6C5)nc(OC[C@@]56CCCN5C[C@H](F)C6)nc4c3F)c12 [Example 44] |  |  | 3% | -9% | 
CCc1c(F)ccc2cc(O)cc(-c3c(F)cc4c(N5CCCC6(CC(=O)N6)C5)nc(OCC5(CN(C)C)CC5)nc4c3F)c12 (stereo not shown) [Example 51, 6-(2-((1-((dimethylamino)methyl)cyclopropyl)methoxy)-7-(8-ethyl-7-fluoro-3-hydroxynaphthalen-1-yl)-6,8-difluoroquinazolin-4-yl)-1,6-diazaspiro[3.5]nonan-2-one] |  |  | 67% | 6% | 
CCc1c(F)ccc2cc(O)cc(-c3c(F)cc4c(N5CC6C(=O)NC(=O)C6C5)nc(OCC5(CN(C)C)CC5)nc4c3F)c12 (stereo not shown) [Example 52, 5-(2-((1-((dimethylamino)methyl)cyclopropyl)methoxy)-7-(8-ethly-7-fluoro-3-hydroxynaphthalen-1-yl)-6,8-difluoroquinazolin-4-yl)tetrahydropyrrolo[3,4-c]pyrrole-1,3(2H,3aH)-dione] |  |  | 6% | 33% | 
CCc1c(F)ccc2cc(O)cc(-c3c(F)cc4c(N5CCCC6(CC(O)C6)C5)nc(OCC5(CN(C)C)CC5)nc4c3F)c12 (stereo not shown) [Example 53, 6-(2-((1-((dimethylamino)methyl)cyclopropyl)methoxy)-7-(8-ethyl-7-fluoro-3-hydroxynaphthalen-1-yl)-6,8-difluoroquinazolin-4-yl)-6-azaspiro[3.5]nonan-2-ol] |  |  | 40% | 27% | 
CCc1c(F)ccc2cc(O)cc(-c3c(F)cc4c(N5CCCC6(C5)NC(=O)NC6=O)nc(OCC5(CN(C)C)CC5)nc4c3F)c12 (stereo not shown) [Example 54, 7-(2-((1-((dimethylamino)methyl)cyclopropyl)methoxy)-7-(8-ethyl-7-fluoro-3-hydroxynaphthalen-1-yl)-6,8-difluoroquinazolin-4-yl)-1,3,7-triazaspiro[4.5]decane-2,4-dione] |  |  | 100% | 61% | 
CCc1c(F)ccc2cc(O)cc(-c3c(F)cc4c(N5CCCn6nc(C(=O)N(C)C)cc6C5)nc(OCC5(CN(C)C)CC5)nc4c3F)c12 [Example 55, 5-(2-((1-((dimethylamino)methyl)cyclopropyl)methoxy)-7-(8-ethyl-7-fluoro-3-hydroxynaphthalen-1-yl)-6,8-difluoroquinazolin-4-yl)-N,N-dimethyl-5,6,7,8-tetrahydro-4H-pyrazolo[1,5-a][1,4]diazepine-2-carboxamide] |  |  | 2% | -13% | 

Source: patent US20240025907A1, “QUINAZOLINE PAN-KRas INHIBITORS” (Mirati Therapeutics, Inc., priority 2022, published 2024)
